Literature values as cited in patent US6896899B2, “Pharmaceutical preparations of glutathione and methods of administration thereof” (Antioxidant Pharmaceuticals Corp., priority 1996, dated 2005).

Assays:
[1] = human, in vivo, po, 15 mg/kg
[2] = tested on: hepatocellular carcinoma
[3] = tested on: blood pressure; conditions: 3,699 mg dose, normal subjects
[4] = human, in vivo, iv
[5] = tested on: HIV; conditions: acutely infected cells, chronically infected cells, normal peripheral blood mononuclear cells
[6] = tested on: hematologic parameters; conditions: 1,200 mg/day intravenously
[7] = tested on: Mouse; conditions: GSH pretreatment

| SMILES | plasma glutathione levels over the basal concentration [1] | tumor growth and survival ([2]; 5 g oral GSH per day) | side-effects ([2]; human, in vivo, po) | blood pressure [3] | volume of distribution of exogenous glutathione [4] | cytokine-stimulated HIV expression and replication [5] | hematologic parameters (hematocrit, hemoglobin, blood count) compared to baseline [6] | protection against morphine-induced lethality [7] |
| --- | --- | --- | --- | --- | --- | --- | --- | --- |
| N[C@@H](CCC(=O)N[C@@H](CS)C(=O)NCC(=O)O)C(=O)O [GSH, gamma-glutamyl-cysteinyl-glycine] | 1.5-10 fold | Two of the female patients survived 1 year and exhibited regression or stagnation of their tumor growth | Two patients withdrew shortly after receiving GSH due to intolerable side-effects | significant decrease | 176-107 Ml/Kg | can inhibit | significantly increase | protects against morphine-induced lethality |
| CC(=O)N[C@@H](CS)C(=O)O [NAC, N-acetyl cysteine] | – | – | – | – | – | can inhibit | – | – |
